Measurements as given in paper PMC9249674, “A small-molecule Skp1 inhibitor elicits cell death by p53-dependent mechanism” (iScience, 2022).

Tests used:
[1] = tested on: Skp1-ΔF-box complex; test: LC-MS/MS analysis of in vitro binding; conditions: overnight incubation
[2] = tested on: 22RV1; test: Cell viability assay (Cell-Titer GLO); format: cell-based; conditions: Homo sapiens, Prostate cancer, 48 hrs, read-out: Anti-proliferative EC50
Description: (§1) For cell viability, cells were seeded in 384 opaque-walled plates with clear bottoms at 300–500 cells per well (optimum density for growth) in a total volume of 20 μL of media. The media was according to culture conditions of each individual cell line (mentioned above). After 12 hrs, compounds were added in a total volume of 5 μL of media (two-fold diluted) to each well with final concentrations from 5 nM to 30 μM. The measurements were conducted 48 hrs after seeding of the cells. Then, 25 μL of Cell-Titer GLO reagent (Promega) was added, and luminescence was measured on an EnSpire multimode plate reader (PerkinElmer), according to the manufacturer’s instructions. The estimated in vitro half-maximal inhibitory concentration (EC50) values were calculated using GraphPad Prism® v6.0 (San Diego, CA) software. The cell viability for A549 cells was also performed for 72- and 96-hrs by using the same experimental conditions as described above.

[3] = tested on: 95D; test: Cell viability assay (Cell-Titer GLO); format: cell-based; conditions: Lung cancer, 48 hrs, read-out: Anti-proliferative EC50
Description: as §1

[4] = tested on: A431; test: Cell viability assay (Cell-Titer GLO); format: cell-based; conditions: Homo sapiens, A-431; A431^c; Skin carcinoma; p53 null or mutant cancer cell lines; 48 hrs; read-out: Anti-proliferative EC50
Description: as §1

[5] = tested on: Du145; test: Cell viability assay (Cell-Titer GLO); format: cell-based; conditions: Homo sapiens, DU-145, Prostate cancer, 48 hrs, read-out: Anti-proliferative EC50
Description: as §1

[6] = tested on: H1299; test: Cell viability assay (Cell-Titer GLO); format: cell-based; conditions: Homo sapiens, NCI-H1299; H1299^b; Lung cancer; p53 null or mutant cancer cell lines; 48 hrs; read-out: Anti-proliferative EC50
Description: as §1

[7] = tested on: H358; test: Cell viability assay (Cell-Titer GLO); format: cell-based; conditions: Homo sapiens, NCI-H358; H358^b; Lung cancer; p53 null or mutant cancer cell lines; 48 hrs; read-out: Anti-proliferative EC50
Description: as §1

[8] = tested on: H460; test: Cell viability assay (Cell-Titer GLO); format: cell-based; conditions: Homo sapiens, NCI-H460, Lung cancer, 48 hrs, read-out: Anti-proliferative EC50
Description: as §1

[9] = tested on: Hela; test: Cell viability assay (Cell-Titer GLO); format: cell-based; conditions: Homo sapiens, Cervical cancer, 48 hrs, read-out: Anti-proliferative EC50
Description: as §1

[10] = tested on: HepG2; test: Cell viability assay (Cell-Titer GLO); format: cell-based; conditions: Homo sapiens, Liver cancer, 48 hrs, read-out: Anti-proliferative EC50
Description: as §1

[11] = tested on: Hs578T; test: Cell viability assay (Cell-Titer GLO); format: cell-based; conditions: Homo sapiens, Hs-578T, Breast cancer, 48 hrs, read-out: Anti-proliferative EC50
Description: as §1

[12] = tested on: Huh-7; test: Cell viability assay (Cell-Titer GLO); format: cell-based; conditions: Homo sapiens, Liver cancer, 48 hrs, read-out: Anti-proliferative EC50
Description: as §1

[13] = tested on: LLC; test: Cell viability assay (Cell-Titer GLO); format: cell-based; conditions: Lewis lung carcinoma; LLC^a; Lung cancer; 48 hrs; read-out: Anti-proliferative EC50
Description: as §1

[14] = tested on: LNCaP; test: Cell viability assay (Cell-Titer GLO); format: cell-based; conditions: Homo sapiens, Prostate cancer, 48 hrs, read-out: Anti-proliferative EC50
Description: as §1

[15] = tested on: MCF-7; test: Cell viability assay (Cell-Titer GLO); format: cell-based; conditions: Homo sapiens, MCF7, Breast cancer, 48 hrs, read-out: Anti-proliferative EC50
Description: as §1

[16] = tested on: MDA-MB-231; test: Cell viability assay (Cell-Titer GLO); format: cell-based; conditions: Homo sapiens, Breast cancer, 48 hrs, read-out: Anti-proliferative EC50
Description: as §1

[17] = tested on: MGC-803; test: Cell viability assay (Cell-Titer GLO); format: cell-based; conditions: Homo sapiens; MGC-803^c; Gastric cancer; p53 null or mutant cancer cell lines; 48 hrs; read-out: Anti-proliferative EC50
Description: as §1

[18] = tested on: NCI-N87; test: Cell viability assay (Cell-Titer GLO); format: cell-based; conditions: Homo sapiens; NCI-N87^c; Gastric cancer; p53 null or mutant cancer cell lines; 48 hrs; read-out: Anti-proliferative EC50
Description: as §1

[19] = tested on: βTC6; test: Cell viability assay (Cell-Titer GLO); format: cell-based; conditions: βTC6^a; Pancreatic insulinoma; 48 hrs; read-out: Anti-proliferative EC50
Description: as §1

[20] = tested on: A549 cells; test: Flow cytometric analysis of cell cycle; format: cell-based, human; conditions: 0.5 μM, asynchronized and synchronized A549 cells
Description: Both asynchronous and synchronous cells were analyzed by flow cytometry with DNA staining to determine the total amount of DNA. For asynchronous analysis, A549 cells were seeded into six-well plates at a density of 6 × 10^5 cells/well. After 14 to 16 hrs of seeding, the cells were treated with indicated concentrations of Z0933M for 24 hrs. Then, the cells were harvested, washed twice with cold PBS, and fixed in cold 70% ethanol on ice (around 4°C) for 4 hrs. Next, the cells were washed twice with cold PBS, resuspended with cold PBS containing […] RnaseA (Sigma), and incubated for 30 min at 37°C. Then, PBS containing […] propidium iodide (PI) (Sigma) was directly added, the cells were mixed gently, and incubated for 5–10 min at room temperature in the dark. Finally, the cell-cycle phase distribution was analyzed in three different experiments using flow cytometry (BD Biosciences, San Diego, CA, USA). At least 10,000 events/sample were acquired. Assays were conducted three times independently. The data was analyzed by FlowJo V10 software. For synchronous cell cycle analysis, cells were synchronized to G1/S boundary by a double-thymidine blockade ([Liu et al., 2015]), and then exposed to Z0933M for time-dependent or dose-dependent analysis. […] Cell cycle distribution was analyzed by flow cytometry (BD Biosciences, San Diego, CA, USA) and FlowJo V10 software.

[21] = tested on: H358 (p53 null) cells; test: Flow cytometric analysis of apoptosis (annexin V/PI); format: cell-based; conditions: 10 μM dose
[22] = tested on: H358 cells; test: Caspase-Glo 3/7 activity; format: cell-based; conditions: dose- and time-dependent treatment
Description: The activities of caspase-3/7, −8 and −9 were measured using Caspase-Glo® 3/7,8, and 9 assay kits (Promega, Madison, WI, USA) according to the manufacturer’s protocol. Briefly, the cells were plated over-night in a white 384 well microplate, and then treated as indicated with Z0933M. After treatment, 25 μL of each caspase substrate was added and incubated at room temperature for 30 min. Upon activation of caspase in the apoptotic cells, the substrate will give a luminescence signal after cleavage of the aminoluciferin-labelled synthetic tetrapeptide. Luminescent signals were detected using an EnSpire multimode plate reader (PerkinElmer). For inhibitor interventions and Skp1 overexpression, the experiments were performed in 96 well format.

[23] = target: recombinant GST (Schistosoma japonicum, UniProt P08515); test: LC-MS/MS analysis of in vitro binding, negative control protein
Chain of recombinant GST (P08515 2-218 limits assumed): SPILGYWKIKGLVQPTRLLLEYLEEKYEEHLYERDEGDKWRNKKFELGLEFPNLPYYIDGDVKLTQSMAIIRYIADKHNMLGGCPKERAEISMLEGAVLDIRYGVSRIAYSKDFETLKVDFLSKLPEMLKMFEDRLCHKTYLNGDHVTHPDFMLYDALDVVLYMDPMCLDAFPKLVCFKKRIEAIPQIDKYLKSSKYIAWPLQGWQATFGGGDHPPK

Q: Nc1ccc(-c2nc3ccccc3c3[nH]c4ccccc4c23)cc1 [Z0933M] was tested. Which “binding by LC-MS/MS” value [1] did it give?
A: robust binding

Q: What about the EC50 [2] of the same compound?
A: 1110 ± 100 nM

Q: And the EC50 [3]?
A: 3140 ± 260 nM

Q: What about the EC50 [4] of the same compound?
A: > 30000 nM

Q: What about the EC50 [5] of the same compound?
A: 250 ± 20 nM

Q: And the EC50 [6]?
A: 11500 ± 210 nM

Q: What about the EC50 [7] of the same compound?
A: 14900 ± 420 nM

Q: And the EC50 [8]?
A: 2690 ± 70 nM

Q: What about the EC50 [9] of the same compound?
A: 360 ± 60 nM

Q: What about the EC50 [10] of the same compound?
A: 4080 ± 950 nM

Q: And the EC50 [11]?
A: 2490 ± 70 nM

Q: And the EC50 [12]?
A: 3600 ± 810 nM

Q: What about the EC50 [13] of the same compound?
A: 1850 ± 350 nM

Q: And the EC50 [14]?
A: 880 ± 30 nM

Q: What about the EC50 [15] of the same compound?
A: 1460 ± 10 nM

Q: And the EC50 [16]?
A: 2900 ± 630 nM

Q: And the EC50 [17]?
A: > 30000 nM

Q: And the EC50 [18]?
A: > 30000 nM

Q: What about the EC50 [19] of the same compound?
A: 370 ± 7 nM

Q: And the cell cycle effect [20]?
A: complete G2/M arrest

Q: What about the induction of apoptosis [21] of the same compound?
A: could not induce apoptosis

Q: What about the “caspase 3/7 activity” value [22] of the same compound?
A: failed to do so

Q: What about the “presence in mass spectra (non-specific binding)” value [23] of the same compound?
A: absent
